PMC12028158, “Synthesis and In Vitro Evaluation of the Anticancer Effect of Novel Phosphonium Vindoline Derivatives” (International Journal of Molecular Sciences, 2025)

Assays:
Assay type in all cases: cell-based
[1] = tested on: NCI-H460; assay: NCI60 one-dose screen; conditions: Homo sapiens, NCI-H460, read-out: Growth percent
[2] = tested on: MALME-3M; assay: NCI60 five-dose screen; conditions: Homo sapiens, Malme-3M
[3] = tested on: OVCAR-3; assay: NCI60 five-dose screen; conditions: Homo sapiens, OVCAR-3
[4] = tested on: SK-MEL-28; assay: NCI60 five-dose screen; conditions: Homo sapiens, SK-MEL-28
[5] = tested on: LOX IMVI; assay: NCI60 five-dose screen; conditions: Homo sapiens
[6] = tested on: OVCAR-8; assay: NCI60 five-dose screen; conditions: Homo sapiens, OVCAR-8
[7] = tested on: MCF7; assay: NCI60 five-dose screen; conditions: Homo sapiens, MCF7
[8] = tested on: UACC-257; assay: NCI60 five-dose screen; conditions: Homo sapiens, UACC-257
[9] = tested on: MALME-3M; assay: NCI60 one-dose screen; conditions: Homo sapiens, Malme-3M, read-out: Growth percent
[10] = tested on: MDA-MB-468; assay: NCI60 five-dose screen; conditions: Homo sapiens, MDA-MB-468
[11] = tested on: KM12; assay: NCI60 five-dose screen; conditions: Homo sapiens, KM12
[12] = tested on: RPMI-8226; assay: NCI60 one-dose screen; conditions: Homo sapiens, RPMI-8226, read-out: Growth percent
[13] = tested on: HS 578T; assay: NCI60 one-dose screen; conditions: Homo sapiens, Hs-578T, read-out: Growth percent
[14] = tested on: HCT-15; assay: NCI60 five-dose screen; conditions: Homo sapiens, HCT-15
[15] = tested on: MOLT-4; assay: NCI60 one-dose screen; conditions: Homo sapiens, MOLT-4, read-out: Growth percent
[16] = tested on: SK-MEL-5; assay: NCI60 one-dose screen; conditions: Homo sapiens, SK-MEL-5, read-out: Growth percent
[17] = tested on: SK-MEL-5; assay: NCI60 five-dose screen; conditions: Homo sapiens, SK-MEL-5
[18] = tested on: UACC-62; assay: NCI60 one-dose screen; conditions: Homo sapiens, UACC-62, read-out: Growth percent
[19] = tested on: HOP-92; assay: NCI60 one-dose screen; conditions: Homo sapiens, HOP-92, read-out: Growth percent
[20] = tested on: NCI-H23; assay: NCI60 five-dose screen; conditions: Homo sapiens, NCI-H23
[21] = tested on: MDA-MB-435; assay: NCI60 one-dose screen; conditions: Homo sapiens, MDA-MB-435, read-out: Growth percent
[22] = tested on: SR; assay: NCI60 one-dose screen; conditions: Homo sapiens, read-out: Growth percent
[23] = tested on: HOP-62; assay: NCI60 five-dose screen; conditions: Homo sapiens, HOP-62
[24] = tested on: OVCAR-8; assay: NCI60 one-dose screen; conditions: Homo sapiens, OVCAR-8, read-out: Growth percent
[25] = tested on: IGROV1; assay: NCI60 one-dose screen; conditions: Homo sapiens, IGROV-1, read-out: Growth percent
[26] = tested on: SNB-19; assay: NCI60 one-dose screen; conditions: Homo sapiens, SNB-19, read-out: Growth percent
[27] = tested on: SK-MEL-2; assay: NCI60 one-dose screen; conditions: Homo sapiens, SK-MEL-2, read-out: Growth percent
[28] = tested on: Renal Cancer panel; assay: NCI60 five-dose screen, panel mean; conditions: Homo sapiens, read-out: Mean GI50
[29] = tested on: SN12C; assay: NCI60 one-dose screen; conditions: Homo sapiens, read-out: Growth percent
[30] = tested on: 786-0; assay: NCI60 one-dose screen; conditions: Homo sapiens, 786-0, read-out: Growth percent
[31] = tested on: SF-295; assay: NCI60 one-dose screen; conditions: Homo sapiens, SF-295, read-out: Growth percent
[32] = tested on: SK-MEL-28; assay: NCI60 one-dose screen; conditions: Homo sapiens, SK-MEL-28, read-out: Growth percent
[33] = tested on: A549/ATCC; assay: NCI60 five-dose screen; conditions: Homo sapiens, A549
[34] = tested on: COLO 205; assay: NCI60 one-dose screen; conditions: Homo sapiens, COLO 205, read-out: Growth percent
[35] = tested on: EKVX; assay: NCI60 five-dose screen; conditions: Homo sapiens
[36] = tested on: MCF7; assay: NCI60 one-dose screen; conditions: Homo sapiens, MCF7, read-out: Growth percent
[37] = tested on: SNB-19; assay: NCI60 five-dose screen; conditions: Homo sapiens, SNB-19
[38] = tested on: T-47D; assay: NCI60 five-dose screen; conditions: Homo sapiens, T47D
[39] = tested on: HL-60(TB); assay: NCI60 five-dose screen; conditions: Homo sapiens, HL-60
[40] = tested on: SF-268; assay: NCI60 one-dose screen; conditions: Homo sapiens, SF-268, read-out: Growth percent
[41] = tested on: Ovarian Cancer panel; assay: NCI60 five-dose screen, panel mean; conditions: Homo sapiens, read-out: Mean GI50
[42] = tested on: SF-539; assay: NCI60 five-dose screen; conditions: Homo sapiens, SF-539
[43] = tested on: Leukemia panel; assay: NCI60 five-dose screen, panel mean; conditions: Homo sapiens, read-out: Mean GI50
[44] = tested on: NCI-H23; assay: NCI60 one-dose screen; conditions: Homo sapiens, NCI-H23, read-out: Growth percent
[45] = tested on: M14; assay: NCI60 one-dose screen; conditions: Homo sapiens, M14, read-out: Growth percent
[46] = tested on: NCI-H322M; assay: NCI60 one-dose screen; conditions: Homo sapiens, read-out: Growth percent

Work on `CC[C@]12C=CCN3CC[C@@]4(c5ccc(OC)cc5N(C)[C@H]4[C@@](O)(C(=O)OC)[C@@H]1OC(=O)CCC[P+](c1ccc(F)cc1)(c1ccc(F)cc1)c1ccc(F)cc1)[C@@H]32` [9c] yielded an activity at 10 µM [1] of 30.9%, a GI50 [2] of 6.85 µM and a GI50 [3] of 6.47 µM. The GI50 [4] was 5.34 µM, the GI50 [5] was 16.6 µM and the GI50 [6] was 18.4 µM. The GI50 [7] was 8.26 µM, the GI50 [8] was 4.67 µM and the activity at 10 µM [9] was -32.6%. It also gave a GI50 [10] of 1500 nM, a GI50 [11] of 8.96 µM and an activity at 10 µM [12] of 24.4%. For the same molecule, the activity at 10 µM [13] was 19.1%, the GI50 [14] was > 48.5 µM and the activity at 10 µM [15] was 37.1%. For the same molecule, the activity at 10 µM [16] was -38.3%, the GI50 [17] was 8.26 µM and the activity at 10 µM [18] was -59.5%. It also gave an activity at 10 µM [19] of -6.2%, a GI50 [20] of 15.8 µM and an activity at 10 µM [21] of 6.69%. For the same molecule, the activity at 10 µM [22] was 42.6%, the GI50 [23] was 20.5 µM and the activity at 10 µM [24] was 28%. For the same molecule, the activity at 10 µM [25] was -15%, the activity at 10 µM [26] was 13.8% and the activity at 10 µM [27] was -46.9%. The GI50 [28] was 34.2 µM, the activity at 10 µM [29] was 16.6% and the activity at 10 µM [30] was 80.9%. It also gave an activity at 10 µM [31] of 85%, an activity at 10 µM [32] of -24.1% and a GI50 [33] of 21.5 µM. For the same molecule, the activity at 10 µM [34] was -18.9%, the GI50 [35] was 19.4 µM and the activity at 10 µM [36] was 7.7%. It also gave a GI50 [37] of 11.4 µM, a GI50 [38] of 10.5 µM and a GI50 [39] of 1770 nM. For the same molecule, the activity at 10 µM [40] was 42.3%, the GI50 [41] was 19 µM and the GI50 [42] was 16.8 µM. For the same molecule, the GI50 [43] was 7.25 µM, the activity at 10 µM [44] was 35.5% and the activity at 10 µM [45] was 21.4%. The activity at 10 µM [46] was 65.2%.
